ChEMBL document CHEMBL1201862, “PubChem BioAssay data set” (2004)
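In this assay, cells in 96-well plates receive the compound at five concentrations for 48 hours. Endpoints are linearly interpolated between the surrounding concentrations. GI50 marks 50% less growth.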 Calls of active or inactive are those of the source. No stated cut-off is given here; in the data, active = GI50 up to about 1.1 µM and inactive = higher.

Experiments:
Test in all cases: NCI-60 cell line screen, 48 h
[1] = tested on: UO-31
[2] = tested on: MDA-MB-231
[3] = tested on: OVCAR-3
[4] = tested on: SF-539
[5] = tested on: PC-3
[6] = tested on: U-251
[7] = tested on: HCT-116
[8] = tested on: CCRF-CEM
[9] = tested on: SNB-19
[10] = tested on: HCC 2998
[11] = tested on: A549
[12] = tested on: RXF 393
[13] = tested on: T47D
[14] = tested on: HOP-62
[15] = tested on: SK-MEL-28
[16] = tested on: NCI-H522
[17] = tested on: OVCAR-8
[18] = tested on: SR
[19] = tested on: SW-620
[20] = tested on: M14
[21] = tested on: K562
[22] = tested on: DU-145
[23] = tested on: OVCAR-5
[24] = tested on: SK-MEL-2
[25] = tested on: ACHN
[26] = tested on: EKVX
[27] = tested on: A498
[28] = tested on: TK-10
[29] = tested on: CAKI-1
[30] = tested on: MDA-MB-435
[31] = tested on: SN12C
[32] = tested on: MCF7
[33] = tested on: UACC-62
[34] = tested on: SF-295
[35] = tested on: RPMI-8226
[36] = tested on: HCT-15
[37] = tested on: SF-268
[38] = tested on: LOX IMVI
[39] = tested on: UACC-257
[40] = tested on: SNB-75
[41] = tested on: BT-549
[42] = tested on: NCI/ADR-RES
[43] = tested on: OVCAR-4
[44] = tested on: Hs-578T
[45] = tested on: HOP-92
[46] = tested on: 786-0
[47] = tested on: HT-29
[48] = tested on: COLO 205
[49] = tested on: IGROV-1
[50] = tested on: MOLT-4
[51] = tested on: SK-OV-3
[52] = tested on: SK-MEL-5
[53] = tested on: KM12
[54] = tested on: NCI-H226
[55] = tested on: NCI-H23
[56] = tested on: HL-60
[57] = tested on: NCI-H460
[58] = tested on: MDA-N

`Cn1c(=O)c2c(n(C)c1=O)n1c(=O)c3ccccc3nc1n2C` was tested, and the GI50 [1] was > 100 µM (inactive), the GI50 [2] was > 100 µM (inactive) and the GI50 [3] was > 100 µM (inactive). For the same molecule, the GI50 [4] was > 100 µM (inactive), the GI50 [5] was > 100 µM (inactive) and the GI50 [6] was 83.6 µM (inactive). The GI50 [7] was > 100 µM (inactive), the GI50 [8] was > 100 µM (inactive) and the GI50 [9] was > 100 µM (inactive). The GI50 [10] was > 100 µM (inactive), the GI50 [11] was > 100 µM (inactive) and the GI50 [12] was > 100 µM (inactive). The GI50 [13] was > 100 µM (inactive), the GI50 [14] was 39.9 µM (inactive) and the GI50 [15] was > 100 µM (inactive). The GI50 [16] was 90.4 µM (inactive), the GI50 [17] was 97.9 µM (inactive) and the GI50 [18] was 0.0237 µM (active). For the same molecule, the GI50 [19] was > 100 µM (inactive), the GI50 [20] was > 100 µM (inactive) and the GI50 [21] was > 100 µM (inactive). The GI50 [22] was > 100 µM (inactive), the GI50 [23] was > 100 µM (inactive) and the GI50 [24] was > 100 µM (inactive). The GI50 [25] was > 100 µM (inactive), the GI50 [26] was > 100 µM (inactive) and the GI50 [27] was > 100 µM (inactive). For the same molecule, the GI50 [28] was > 100 µM (inactive), the GI50 [29] was > 100 µM (inactive) and the GI50 [30] was > 100 µM (inactive). For the same molecule, the GI50 [31] was > 100 µM (inactive), the GI50 [32] was > 100 µM (inactive) and the GI50 [33] was 46.9 µM (inactive). The GI50 [34] was 38 µM (inactive), the GI50 [35] was > 100 µM (inactive) and the GI50 [36] was over 100 µM. For the same molecule, the GI50 [37] was 72.3 µM (inactive), the GI50 [38] was 83.9 µM (inactive) and the GI50 [39] was > 100 µM (inactive). For the same molecule, the GI50 [40] was 39.4 µM (inactive), the GI50 [41] was > 100 µM (inactive) and the GI50 [42] was > 100 µM (inactive). For the same molecule, the GI50 [43] was > 100 µM (inactive), the GI50 [44] was 59.4 µM (inactive) and the GI50 [45] was > 100 µM (inactive). The GI50 [46] was 82.2 µM (inactive), the GI50 [47] was > 100 µM (inactive) and the GI50 [48] was > 100 µM (inactive). The GI50 [49] was > 100 µM (inactive), the GI50 [50] was > 100 µM (inactive) and the GI50 [51] was > 100 µM (inactive). For the same molecule, the GI50 [52] was > 100 µM (inactive), the GI50 [53] was > 100 µM (inactive) and the GI50 [54] was 30.7 µM (inactive). The GI50 [55] was > 100 µM (inactive).

In the case of `N#C/C(C(=O)Nc1ccc(Cl)cc1)=C(/N)N1CCCCC1`, the GI50 [1] is reported as 22.3 µM (inactive), the GI50 [3] is reported as > 100 µM (inactive) and the GI50 [4] is reported as 75.7 µM (inactive). For the same molecule, the GI50 [5] was > 100 µM (inactive), the GI50 [6] was 56.5 µM (inactive) and the GI50 [7] was 99.5 µM (inactive). The GI50 [8] was > 100 µM (inactive), the GI50 [9] was 36.8 µM (inactive) and the GI50 [10] was > 100 µM (inactive). The GI50 [11] was > 100 µM (inactive), the GI50 [13] was > 100 µM (inactive) and the GI50 [14] was 41.3 µM (inactive). For the same molecule, the GI50 [15] was > 100 µM (inactive), the GI50 [17] was 41.2 µM (inactive) and the GI50 [18] was > 100 µM (inactive). The GI50 [19] was > 100 µM (inactive), the GI50 [20] was 85.1 µM (inactive) and the GI50 [21] was > 100 µM (inactive). The GI50 [22] was > 100 µM (inactive), the GI50 [23] was > 100 µM (inactive) and the GI50 [24] was > 100 µM (inactive). For the same molecule, the GI50 [25] was > 100 µM (inactive), the GI50 [26] was 45.1 µM (inactive) and the GI50 [27] was > 100 µM (inactive). For the same molecule, the GI50 [29] was > 100 µM (inactive), the GI50 [30] was > 100 µM (inactive) and the GI50 [31] was > 100 µM (inactive). For the same molecule, the GI50 [32] was > 100 µM (inactive), the GI50 [33] was 42.5 µM (inactive) and the GI50 [34] was 54 µM (inactive). The GI50 [35] was > 100 µM (inactive), the GI50 [36] was over 100 µM and the GI50 [38] was 83.4 µM (inactive). The GI50 [39] was > 100 µM (inactive), the GI50 [56] was 10 µM (inactive) and the GI50 [40] was 24.7 µM (inactive). For the same molecule, the GI50 [41] was > 100 µM (inactive), the GI50 [42] was 79.3 µM (inactive) and the GI50 [45] was > 100 µM (inactive). For the same molecule, the GI50 [57] was > 100 µM (inactive), the GI50 [46] was > 100 µM (inactive) and the GI50 [58] was > 100 µM (inactive). For the same molecule, the GI50 [48] was > 100 µM (inactive), the GI50 [49] was 66.5 µM (inactive) and the GI50 [50] was > 100 µM (inactive). For the same molecule, the GI50 [51] was 72.6 µM (inactive), the GI50 [52] was > 100 µM (inactive) and the GI50 [53] was > 100 µM (inactive). The GI50 [54] was 92.3 µM (inactive) and the GI50 [55] was 64.4 µM (inactive).
